Experimental data reported in paper PMC9917282, “Crystal Structure of Inhibitor-Bound Bacterial Oligopeptidase B in the Closed State: Similarity and Difference between Protozoan and Bacterial Enzymes” (International Journal of Molecular Sciences, 2023).

Target: T1, SpOpB (PSP) (Serratia proteamaculans, UniProt B3VI58)
T1 construct: gene opdB; plasmid pET-6HisOpB, expressed in E. coli BL21(DE3)RIPL; monomer in asymmetric unit
T1 sequence (B3VI58 2-677): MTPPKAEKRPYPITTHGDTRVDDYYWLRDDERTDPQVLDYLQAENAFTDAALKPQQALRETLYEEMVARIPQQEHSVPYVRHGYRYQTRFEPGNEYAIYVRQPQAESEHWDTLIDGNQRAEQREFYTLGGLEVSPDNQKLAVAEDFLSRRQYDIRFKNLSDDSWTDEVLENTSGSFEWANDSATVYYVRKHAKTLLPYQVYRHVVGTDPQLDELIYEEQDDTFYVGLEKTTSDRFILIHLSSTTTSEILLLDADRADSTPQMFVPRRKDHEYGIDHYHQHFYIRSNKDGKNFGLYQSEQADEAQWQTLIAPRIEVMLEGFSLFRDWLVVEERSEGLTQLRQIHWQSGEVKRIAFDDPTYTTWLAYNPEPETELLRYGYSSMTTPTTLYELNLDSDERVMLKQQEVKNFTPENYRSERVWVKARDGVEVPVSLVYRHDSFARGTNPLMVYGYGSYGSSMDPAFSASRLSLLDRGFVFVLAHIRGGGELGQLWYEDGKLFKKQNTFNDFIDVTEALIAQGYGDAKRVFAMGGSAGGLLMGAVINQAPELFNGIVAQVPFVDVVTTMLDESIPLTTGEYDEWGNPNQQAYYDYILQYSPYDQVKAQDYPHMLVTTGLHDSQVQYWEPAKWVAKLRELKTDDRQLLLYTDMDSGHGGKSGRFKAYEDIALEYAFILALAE
Test: Kitz-Wilson inactivation kinetics, residual BAPNA hydrolysis at […] nm; crystal structure of complex at […] A
Assay type: biochemical
Conditions: covalent; irreversible alkylation, Ki of the initial enzyme-inhibitor complex; bound to S532 and H652; 0.1 M Tris-HCl pH 8.0, 25 °C; 70 nM enzyme, 50–260 µM TCK

Molecule `Cc1ccc(S(=O)(=O)N[C@@H](CCCCN)C(=O)CCl)cc1` [TCK] has a KI (inactivation) of 280 ± 60 µM.
